Test results from the NIST ThermoML archive (doi:10.1021/acs.jced.5b00367).
± gives the expanded uncertainty stated by the source.

Assay: wn = mass fraction of the nth substance listed
Conditions: 101 kPa, Liquid, Alternating current cell with electrodes, w2 = 0.01

CCCCCCCCCCCCCCCC[N+](C)(C)C.[Br-] [N,N,N-trimethyl-1-hexadecanaminium bromide] + O
Conditions	electrical conductivity [S/m]
288.75 K	0.00779 ± 0.0031
288.85 K	0.0077 ± 0.0031
288.95 K	0.00795 ± 0.0032
289.05 K	0.00784 ± 0.0031
289.15 K	0.00787 ± 0.0032
289.25 K	0.00779 ± 0.0031
289.35 K	0.00805 ± 0.0032
289.45 K	0.00794 ± 0.0032
289.55 K	0.00793 ± 0.0032
289.65 K	0.00803 ± 0.0032
289.75 K	0.00826 ± 0.0033
289.85 K	0.00819 ± 0.0033
289.95 K	0.00835 ± 0.0033
290.05 K	0.0079 ± 0.0032
290.15 K	0.00861 ± 0.0034
290.25 K	0.00828 ± 0.0033
290.35 K	0.00849 ± 0.0034
290.45 K	0.00815 ± 0.0033
290.55 K	0.00824 ± 0.0033
290.65 K	0.00834 ± 0.0033
290.75 K	0.00836 ± 0.0034
290.85 K	0.00818 ± 0.0033
290.95 K	0.00836 ± 0.0034
291.05 K	0.00861 ± 0.0034
291.15 K	0.00846 ± 0.0034
291.25 K	0.0088 ± 0.0035
291.35 K	0.00865 ± 0.0035
291.45 K	0.00866 ± 0.0035
291.55 K	0.00853 ± 0.0034
291.65 K	0.00868 ± 0.0035
291.75 K	0.00867 ± 0.0035
291.85 K	0.00897 ± 0.0036
291.95 K	0.00872 ± 0.0035
292.05 K	0.00879 ± 0.0035
292.15 K	0.00913 ± 0.0037
292.25 K	0.00908 ± 0.0036
292.35 K	0.00902 ± 0.0036
292.45 K	0.00905 ± 0.0036
292.55 K	0.00904 ± 0.0036
292.65 K	0.00928 ± 0.0037
292.75 K	0.00942 ± 0.0038
292.85 K	0.00967 ± 0.0039
292.95 K	0.00959 ± 0.0038
293.05 K	0.00954 ± 0.0038
293.15 K	0.00976 ± 0.0039
293.25 K	0.01 ± 0.004
293.35 K	0.0101 ± 0.0041
293.45 K	0.0102 ± 0.0041
293.55 K	0.0103 ± 0.0041
293.65 K	0.0105 ± 0.0042
293.75 K	0.0102 ± 0.0041
294.15 K	0.0106 ± 0.0042
294.25 K	0.0109 ± 0.0044
294.35 K	0.0107 ± 0.0043
294.45 K	0.011 ± 0.0044
294.55 K	0.0111 ± 0.0045
294.65 K	0.0109 ± 0.0044
294.75 K	0.011 ± 0.0044
294.85 K	0.0114 ± 0.0046
294.95 K	0.0113 ± 0.0045
295.05 K	0.0114 ± 0.0046
295.15 K	0.0117 ± 0.0047
295.25 K	0.0117 ± 0.0047
295.45 K	0.0122 ± 0.0049
295.65 K	0.0126 ± 0.005
295.75 K	0.0124 ± 0.005
295.85 K	0.0128 ± 0.0052
296.05 K	0.013 ± 0.0052
296.15 K	0.0139 ± 0.0056
296.35 K	0.0139 ± 0.0056
296.45 K	0.0145 ± 0.0058
296.55 K	0.0148 ± 0.006
296.75 K	0.0157 ± 0.0064
296.95 K	0.0167 ± 0.0068
297.05 K	0.0178 ± 0.0073
297.15 K	0.02 ± 0.0082
297.35 K	0.0201 ± 0.0085
297.45 K	0.0217 ± 0.0092
297.55 K	0.0232 ± 0.0097
297.65 K	0.0257 ± 0.011
297.95 K	0.0314 ± 0.014
298.05 K	0.0353 ± 0.015
298.25 K	0.0406 ± 0.018
298.35 K	0.0457 ± 0.02
298.45 K	0.0514 ± 0.022
298.55 K	0.0565 ± 0.024
298.75 K	0.0605 ± 0.025
298.85 K	0.0628 ± 0.025
299.05 K	0.0642 ± 0.026
299.15 K	0.0647 ± 0.026
299.25 K	0.0648 ± 0.026
